According to ChEMBL document CHEMBL4706519, “Evaluation of N-phenyl-2-aminothiazoles for treatment of multi-drug resistant and intracellular Staphylococcus aureus infections” (Eur J Med Chem, 2020):
In brackets after ≈: the same amount, converted by molar mass.

Key:
physchem = details: phosphate-buffered saline, pH 7.4
Staphylococcus aureus [1] = assay: Ratio of MIC for methicillin-resistant Staphylococcus aureus USA400 NRS123 measured after 14th passage to MIC for methicillin-resistant Staphylococcus aureus USA400 NRS123 measured after 18 to 20 hrs by broth microdilution assay; assay type: functional
Staphylococcus aureus [2] = assay: Antibacterial activity against methicillin-resistant Staphylococcus aureus USA300 NRS384 assessed as inhibition of bacterial growth measured after 18 to 20 hrs by broth microdilution method; assay type: functional; details: time 18-20 hrs
Escherichia coli [3] = assay: Antibacterial activity against Escherichia coli JW55031 harboring toIC efflux mutant assessed as inhibition of bacterial growth measured after 18 to 20 hrs by broth microdilution method; assay type: functional; details: time 18-20 hrs
Escherichia coli [4] = assay: Antibacterial activity against wild type Escherichia coli BW25113 assessed as inhibition of bacterial growth measured after 18 to 20 hrs by broth microdilution method; assay type: functional; details: time 18-20 hrs
Streptococcus pneumoniae [5] = assay: Ratio of MBC to MIC for cephalosporin-resistant Streptococcus pneumoniae ATCC 51916 assessed as inhibition of bacterial growth measured after 18 to 20 hrs by CLSI protocol based broth microdilution method; assay type: functional; details: time 18-20 hrs
Listeria monocytogenes [6] = assay: Ratio of MBC to MIC for Listeria monocytogenes ATCC 19111 assessed as inhibition of bacterial growth measured after 18 to 20 hrs by CLSI protocol based broth microdilution method; assay type: functional; details: time 18-20 hrs
Enterococcus faecium [7] = assay: Ratio of MBC to MIC for vancomycin-resistant Enterococcus faecium ATCC 700221 assessed as inhibition of bacterial growth measured after 18 to 20 hrs by CLSI protocol based broth microdilution method; assay type: functional; details: time 18-20 hrs
Enterococcus faecalis [8] = assay: Ratio of MBC to MIC for vancomycin-resistant Enterococcus faecalis ATCC 51299 assessed as inhibition of bacterial growth measured after 18 to 20 hrs by CLSI protocol based broth microdilution method; assay type: functional; details: time 18-20 hrs
Staphylococcus aureus [9] = assay: Ratio of MBC to MIC against methicillin-sensitive Staphylococcus aureus ATCC 6538 assessed as inhibition of bacterial growth measured after 18 to 20 hrs by CLSI broth microdilution method; assay type: functional; details: time 18-20 hrs
Staphylococcus aureus [10] = assay: Antibacterial activity against vancomycin-resistant Staphylococcus aureus 10 assessed as inhibition of bacterial growth measured after 18 to 20 hrs by CLSI protocol based broth microdilution method; assay type: functional; details: time 18-20 hrs
[11] = system: Staphylococcus epidermidis; assay: Ratio of MBC to MIC for methicillin-resistant Staphylococcus epidermidis NRS101 assessed as inhibition of bacterial growth measured after 18 to 20 hrs by CLSI protocol based broth microdilution method; assay type: functional; details: time 18-20 hrs
Staphylococcus aureus [12] = assay: Antibacterial activity against vancomycin-resistant Staphylococcus aureus 12 assessed as inhibition of bacterial growth measured after 18 to 20 hrs by CLSI protocol based broth microdilution method; assay type: functional; details: time 18-20 hrs
[13] = system: Staphylococcus epidermidis; assay: Antibacterial activity against methicillin-resistant Staphylococcus epidermidis NRS101 assessed as inhibition of bacterial growth measured after 18 to 20 hrs by CLSI protocol based broth microdilution method; assay type: functional; details: time 18-20 hrs
Enterococcus faecium [14] = assay: Antibacterial activity against vancomycin-resistant Enterococcus faecium ATCC 700221 assessed as inhibition of bacterial growth measured after 18 to 20 hrs by CLSI protocol based broth microdilution method; assay type: functional; details: time 18-20 hrs
Listeria monocytogenes [15] = assay: Antibacterial activity against Listeria monocytogenes ATCC 19111 assessed as inhibition of bacterial growth measured after 18 to 20 hrs by CLSI protocol based broth microdilution method; assay type: functional; details: time 18-20 hrs
Streptococcus pneumoniae [16] = assay: Antibacterial activity against cephalosporin-resistant Streptococcus pneumoniae ATCC 51916 assessed as inhibition of bacterial growth measured after 18 to 20 hrs by CLSI protocol based broth microdilution method; assay type: functional; details: time 18-20 hrs
Streptococcus pneumoniae [17] = assay: Antibacterial activity against methicillin-resistant Streptococcus pneumoniae ATCC 700677 assessed as inhibition of bacterial growth measured after 18 to 20 hrs by CLSI protocol based broth microdilution method; assay type: functional; details: time 18-20 hrs
Staphylococcus aureus [18] = assay: Ratio of MBC to MIC against methicillin-sensitive Staphylococcus aureus NRS107 assessed as inhibition of bacterial growth measured after 18 to 20 hrs by CLSI protocol based broth microdilution method; assay type: functional; details: time 18-20 hrs
Staphylococcus aureus [19] = assay: Bactericidal activity against methicillin-resistant Staphylococcus aureus USA400 NRS123 assessed as log reduction in viable bacteria count at 5 times MIC incubated for 2 hrs in soy broth followed by incubation for 18 to 20 hrs on agar plate by time kill assay; assay type: functional; details: time 20-22 hrs
Staphylococcus aureus [20] = assay: Bactericidal activity against methicillin-resistant Staphylococcus aureus USA400 NRS123 assessed as post-antibiotic effect at 5 times MIC incubated for 2 hrs followed by compound wash-out by viable plate count method; assay type: functional
[21] = Cytotoxicity against human Caco-2 cells assessed as cell viability at 32 ug/ml incubated for 2 hrs by MTS assay relative to control; assay type: cell-based; details: at 32 µg/mL, read-out: Activity
[22] = Selectivity index, ratio of maximum non-toxic concentration for human Caco-2 cells to MIC for methicillin-resistant Staphylococcus aureus USA500 NRS385; assay type: toxicity
[23] = Selectivity index, ratio of maximum non-toxic concentration for human Caco-2 cells to MIC for methicillin-resistant Staphylococcus aureus USA400 NRS123; assay type: toxicity
[24] = Selectivity index, ratio of maximum non-toxic concentration for human Caco-2 cells to MIC for methicillin-resistant Staphylococcus aureus NRS119; assay type: toxicity
[25] = Selectivity index, ratio of maximum non-toxic concentration for human Caco-2 cells to MIC for methicillin-resistant Staphylococcus aureus USA300 NRS384; assay type: toxicity
Staphylococcus aureus [26] = assay: Antibacterial activity against methicillin-resistant Staphylococcus aureus USA400 NRS123 infected in mouse J774 cells assessed as reduction in intracellular bacterial burden at 2 x MIC measured after 24 hrs relative to control; assay type: functional
Staphylococcus aureus [27] = assay: Antibacterial activity against methicillin-resistant Staphylococcus aureus USA400 NRS123 infected in mouse J774 cells assessed as reduction in intracellular bacterial burden at 4 x MIC measured after 24 hrs relative to control; assay type: functional
Streptococcus pneumoniae [28] = assay: Ratio of MBC to MIC for methicillin-resistant Streptococcus pneumoniae ATCC 700677 assessed as inhibition of bacterial growth measured after 18 to 20 hrs by CLSI protocol based broth microdilution method; assay type: functional; details: time 18-20 hrs
Staphylococcus aureus [29] = assay: Bactericidal activity against methicillin-resistant Staphylococcus aureus USA400 NRS123 assessed as eradication of bacterial count at 5 times MIC incubated for 2 hrs in soy broth followed by incubation for 18 to 20 hrs on agar plate by time kill assay; assay type: functional; details: time 20-22 hrs
[30] = Selectivity index, ratio of maximum non-toxic concentration for human Caco-2 cells to MIC for methicillin-resistant Staphylococcus aureus USA700 NRS386; assay type: toxicity
J774 = assay: Cytotoxicity against mouse J774 cells assessed as cell viability at 32 ug/ml incubated for 2 hrs by MTS assay; assay type: cell-based; details: j774, 2 h, dose 32 µg/ml
Staphylococcus aureus [31] = assay: Antibacterial activity against methicillin-resistant Staphylococcus aureus USA400 NRS123 infected in mouse J774 cells assessed as log reduction in intracellular bacterial burden at 2 x MIC measured after 24 hrs; assay type: functional
Staphylococcus aureus [32] = assay: Antibacterial activity against methicillin-resistant Staphylococcus aureus USA400 NRS123 infected in mouse J774 cells assessed as log reduction in intracellular bacterial burden at 4 x MIC measured after 24 hrs; assay type: functional
Staphylococcus aureus [33] = assay: Ratio of MIC for methicillin-resistant Staphylococcus aureus USA400 NRS123 measured after 7th passage to MIC for methicillin-resistant Staphylococcus aureus USA400 NRS123 measured after 18 to 20 hrs by broth microdilution assay; assay type: functional
Staphylococcus aureus [34] = assay: microbe, parasite or virus in culture; details: ATCC 6538
Staphylococcus aureus [35] = assay: microbe, parasite or virus in culture; details: NRS107
Staphylococcus aureus [36] = assay: microbe, parasite or virus in culture; details: NRS119
Staphylococcus aureus [37] = assay: microbe, parasite or virus in culture; details: USA400 NRS123
Staphylococcus aureus [38] = assay: microbe, parasite or virus in culture; details: USA500 NRS385
Staphylococcus aureus [39] = assay: microbe, parasite or virus in culture; details: USA700 NRS386
Enterococcus faecalis [40] = assay: microbe, parasite or virus in culture; details: ATCC 51299

CO[C@H]1/C=C/O[C@@]2(C)Oc3c(C)c(O)c4c(O)c(c(/C=N/N5CCN(C)CC5)c(O)c4c3C2=O)NC(=O)/C(C)=C\C=C\[C@H](C)[C@H](O)[C@@H](C)[C@@H](O)[C@@H](C)[C@H](OC(C)=O)[C@@H]1C [RIFAMPIN]
solubility kinetic at 2 h (physchem): 183 µM (≈ 151 µg/mL)

O=C(O)c1cn(C2CC2)c2cc(N3CCNCC3)c(F)cc2c1=O [CIPROFLOXACIN]
Ratio (Staphylococcus aureus [1]): 127

C/C(=N\NC(=N)N)c1ccc(Nc2nc(-c3ccc(Cl)cc3)cs2)cc1
MIC (Staphylococcus aureus [2]): 4 µg/mL (≈ 10.4 µM) | MIC (Escherichia coli [3]): 8 µg/mL (≈ 20.8 µM) | MIC (Escherichia coli [4]): 8 µg/mL (≈ 20.8 µM) | Ratio (Streptococcus pneumoniae [5]): 1 | Ratio (Listeria monocytogenes [6]): 1 | Ratio (Enterococcus faecium [7]): 1 | Ratio (Enterococcus faecalis [8]): 1 | Ratio (Staphylococcus aureus [9]): 1 | MBC (Staphylococcus aureus [10]): 1 µg/mL (≈ 2.6 µM) | MIC (Staphylococcus aureus [10]): 1 µg/mL (≈ 2.6 µM) | Ratio [11]: 1 | MBC (Staphylococcus aureus [12]): 1 µg/mL (≈ 2.6 µM) | MIC (Staphylococcus aureus [12]): 1 µg/mL (≈ 2.6 µM) | MBC [13]: 1 µg/mL (≈ 2.6 µM) | MIC [13]: 1 µg/mL (≈ 2.6 µM) | MBC (Enterococcus faecium [14]): 2 µg/mL (≈ 5.2 µM) | MIC (Enterococcus faecium [14]): 1 µg/mL (≈ 2.6 µM) | MBC (Listeria monocytogenes [15]): 2 µg/mL (≈ 5.2 µM) | MIC (Listeria monocytogenes [15]): 1 µg/mL (≈ 2.6 µM) | MBC (Streptococcus pneumoniae [16]): 4 µg/mL (≈ 10.4 µM) | MIC (Streptococcus pneumoniae [16]): 2 µg/mL (≈ 5.2 µM) | MBC (Streptococcus pneumoniae [17]): 4 µg/mL (≈ 10.4 µM) | MIC (Streptococcus pneumoniae [17]): 2 µg/mL (≈ 5.2 µM) | Ratio (Staphylococcus aureus [18]): 1 | Activity (Staphylococcus aureus [19]): 3 log10CFU/ml | PAE (Staphylococcus aureus [20]): 4 h | viability at 2 h, 32 ug/ml [21]: 100% | selectivity ratio [22]: 16 | selectivity ratio [23]: 16 | selectivity ratio [24]: 16 | selectivity ratio [25]: 16 | inhibition (INH) (Staphylococcus aureus [26]): 69% | inhibition (INH) (Staphylococcus aureus [27]): 97% | Ratio (Streptococcus pneumoniae [28]): 1 | Activity (Staphylococcus aureus [29]): 100% | selectivity ratio [30]: 16 | Activity (J774): Non-Toxic | Activity (Staphylococcus aureus [31]): 0.51 log10CFU/ml | Activity (Staphylococcus aureus [32]): 1.56 log10CFU/ml | Ratio (Staphylococcus aureus [33]): 1 | Ratio (Staphylococcus aureus [1]): 3 | MBC (Staphylococcus aureus [34]): 1 µg/mL (≈ 2.6 µM) | MIC (Staphylococcus aureus [34]): 1 µg/mL (≈ 2.6 µM) | MBC (Staphylococcus aureus [35]): 1 µg/mL (≈ 2.6 µM) | MIC (Staphylococcus aureus [35]): 1 µg/mL (≈ 2.6 µM) | MBC (Staphylococcus aureus [36]): 1 µg/mL (≈ 2.6 µM) | MIC (Staphylococcus aureus [36]): 1 µg/mL (≈ 2.6 µM) | MBC (Staphylococcus aureus [37]): 1 µg/mL (≈ 2.6 µM) | MIC (Staphylococcus aureus [37]): 1 µg/mL (≈ 2.6 µM) | MBC (Staphylococcus aureus [38]): 2 µg/mL (≈ 5.2 µM) | MIC (Staphylococcus aureus [38]): 1 µg/mL (≈ 2.6 µM) | MBC (Staphylococcus aureus [39]): 4 µg/mL (≈ 10.4 µM) | MIC (Staphylococcus aureus [39]): 1 µg/mL (≈ 2.6 µM) | MBC (Enterococcus faecalis [40]): 4 µg/mL (≈ 10.4 µM) | MIC (Enterococcus faecalis [40]): 1 µg/mL (≈ 2.6 µM)
